Results taken from patent US11203575B2, “Methhod for producing a crystalline form of 5-amino-2,3-dihydrophthalazine-1,4-dione” (METRIOPHARM AG, priority 2016, dated 2021).

From the text: FIG. 5: TG-DSC diagram of crystalline form of 5-amino-2,3-dihydro-1,4-phthalazinedione produced by the method according to the invention. Upper trace: Mass loss determined by TG. Lower trace: Heat flow determined by DSC

thermal stability up to (simultaneous TG and DSC, solid crystalline form (FIG. 5)): up to 328±1 °C
SMILES: Nc1cccc2c(=O)[nH][nH]c(=O)c12 [crystalline form of luminol, 5-amino-2,3-dihydrophthalazine-1,4-dione]
solid state transformation to other forms (TG-DSC, until thermal degradation of the crystalline compound sets in (FIG. 5)): no solid state transformation to other forms is observed
